Source: publication PMC11578313, “Miniaturized Modular Click Chemistry‐enabled Rapid Discovery of Unique SARS‐CoV‐2 M^pro Inhibitors With Robust Potency and Drug‐like Profile” (Advanced Science, 2024)
Read-outs that look alike come from different tables or passages of the source.

Columns and labels:
[1] = system: rgSARS‐CoV‐2‐M^pro/T21I+E166V; type: cell-based, SARS‐CoV‐2; settings: read-out: EC50 ± SD, rgSARS‐CoV‐2‐M^pro/T21I +E166V
[2] = system: rgSARS‐CoV‐2‐M^pro/L50F+E166V; type: cell-based, SARS‐CoV‐2; settings: read-out: EC50 ± SD, rgSARS‐CoV‐2‐M^pro/L50F+E166V
[3] = system: Wild‐type rgSARS‐CoV‐2; assay: microbe, parasite or virus in culture; type: cell-based, SARS‐CoV‐2
[4] = system: SARS‐CoV‐2 (hCoV‐19/Korea/KCDC06/2020, wild type); assay: microbe, parasite or virus in culture; type: cell-based
[5] = Severe acute respiratory syndrome coronavirus 2, Calu-3; read-out: EC50 ± SD, Wild‐type rgSARS‐CoV‐2

SMILES: Cc1cncc(C(=O)N2C[C@H]3CC[C@@H](C2)N3C(c2cccc(F)c2)c2cccc(F)c2)c1 [AA‐625, reference compound]
- EC50 [1]: 3410 ± 821 nM
- EC50 [2]: 5710 ± 664 nM
- EC50 [3, 5]: 779 ± 173 nM

SMILES: Cc1cncc(C(=O)N2C[C@H]3CC[C@@H](C2)N3[C@H](c2cccc(F)c2)c2cn(CCc3ccsc3)nn2)c1 [Compound C5N17B]
- EC50 [1]: 260 ± 29 nM
- EC50 ([4]; Severe acute respiratory syndrome coronavirus 2, Calu-3, Gamma, Delta, and Omicron, read-out: EC50 against several SARS‐CoV‐2 variants): 130 to 260 nM
- EC50 ([4]; Severe acute respiratory syndrome coronavirus 2, wild‐type, gamma, delta, and omicron, Calu‐3, read-out: EC50 against the original strain and its circulating variants): 119 to 260 nM
- EC50 [2]: 150 ± 19 nM
- EC50 [3, 5]: < 46 nM

SMILES: Cc1cncc(C(=O)N2C[C@H]3CC[C@@H](C2)N3C(c2cccc(F)c2)c2cn(CCc3ccsc3)nn2)c1 (some centres unmarked) [Compound C5N17]
- EC50 [1]: 1470 ± 123 nM
- EC50 [2]: 966 ± 40 nM
- EC50 [3, 5]: 441 ± 32 nM

SMILES: CC(C)(C)[C@H](NC(=O)C(F)(F)F)C(=O)N1C[C@H]2[C@@H]([C@H]1C(=O)N[C@H](C#N)C[C@@H]1CCNC1=O)C2(C)C [Nirmatrelvir, reference compound]
- EC50 [1]: > 100000 nM
- EC50 [2]: > 100000 nM
- EC50 ([3]; Severe acute respiratory syndrome coronavirus 2, Calu-3, read-out: EC50 ± SD, Wild‐type rgSARS‐CoV‐2): 2770 ± 33 nM
